From EP4810052A2, “HCRHR2 SELECTIVE POLYPEPTIDES” (Gubra A/S, priority 2023, dated 2026)
Starred links: 1 amine or outer side, 2 acyl side, 3 side chain; linkers in the order of their positions; H or OH if unused. Non-standard residues stand in square brackets, D forms with d. Residues, ends and D or L forms follow the SMILES beside them. Groups on a side chain read outwards from the residue. *: point of attachment. C20 diacid = O=C(O)CCCCCCCCCCCCCCCCCCC(=O)*; γGlu = O=C(O)[C@H](CCC(=O)[*:2])N[*:1]; NMeI = CC[C@H](C)[C@H](NC)C(=O)O; Nle = CCCC[C@H](N)C(=O)O; AEEA = NCCOCCOCC(=O)O; Aib = CC(C)(N)C(=O)O

Tests used:
[1] = Chemical stability of purified peptides (RP-UHPLC main peak purity loss); assay type: physicochemical
Procedure, shortened: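 Peptides at about 1.0 mg/ml in 50 mM phosphate buffer pH 7.5, or pH-adjusted for the pH series, were incubated at 40 °C for 14 and 28 days. Main-peak purity was taken as main-peak area over total area by RP-UHPLC (UV 215 nm, C8, 50 °C). Purity loss was calculated versus T0.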

[2] = Thioflavin T fibril formation assay of purified peptides; assay type: physicochemical; set-up: key: Amyloid fibril formation detected by an increase in ThT fluorescence was denoted with "Yes"; samples without increasing ThT fluorescence hence not forming amyloid fibrils were denoted "No"
Procedure, shortened: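 Compounds at 200 µM in 50 mM phosphate buffer at the stated pH values, or at 200 µM in semaglutide drug product adjusted to pH 7.4, with 4 µM ThT final. Fibrillation followed as ThT fluorescence (ex 450/em 480 nm) over 96 h at 40°C, with 5 min shaking at 700 rpm alternating with 5 min rest; triplicates.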

PK in mice = assay type: in vivo; set-up: T½ / MRT: unit: h; settings: Mouse
Experimental: Lean male NMRI/RjHan mice were obtained from JanVier (JanVier Labs, France) at 6 weeks of age. The animals were single housed under a 12/12 h dark-light cycle, light off at 3 PM. Room temperature was controlled to 22°C ± 1°C, with 60 % ± 20% humidity. Animals had ad libitum access to regular rodent chow (Altromin 1324, Brogaarden, Denmark) and tap water.
After 2 weeks of acclimatization, the animals were randomized into treatment groups (n=9 per group) based on body weight. Animals were dosed IV with one peptide and SC with another peptide (15 or 50 nmol/kg) Plasma samples were collected for PK analysis at times 0.17, 1, 3, 6, 24, 30, 48, 72 and 96 hours post dosing in a sparse sampling design with 3 mice per group per timepoint. Plasma samples were analyzed using LC-MSMS and PK parameters were estimated by Non-Compartmental Analysis (NCA).

[3] = pH 7.5, 40°C, 14 days, first value of cell
[4] = pH 7.5, 40°C, 28 days, second value of cell

Compound | Chemical stability at pH 7.5 after 14 days at 40°C (% degradation) [1, 3] [%] | Chemical stability at pH 7.5 after 28 days at 40°C (% degradation) [1, 4] [%] | Fibrillation (pH 7.5) ([2]; pH 7.5, ThT assay) | Chemical stability at pH 7.5 after 14 days at 40°C (% degradation) ([1]; pH 7.5, 14 days, 40°C) [%] | Chemical stability at pH 7.5 after 28 days at 40°C (% degradation) ([1]; pH 7.5, 28 days, 40°C) [%] | Fibrillation (pH 7.5) ([2]; pH 7.5) | MRT (PK in mice) | T½ (PK in mice)
CC[C@H](C)[C@H](N)C(=O)N[C@H](C(=O)N[C@@H](CC(C)C)C(=O)N[C@@H](CO)C(=O)N[C@@H](CC(C)C)C(=O)N[C@@H](CC(=O)O)C(=O)N[C@H](C(=O)N1CCC[C@H]1C(=O)N[C@H](C(=O)NCC(=O)N[C@@H](CC(C)C)C(=O)N[C@@H](CC(C)C)C(=O)N[C@@H](CCC(N)=O)C(=O)N[C@H](C(=O)N[C@@H](CC(C)C)C(=O)N[C@@H](CC(C)C)C(=O)N[C@@H](CCC(=O)O)C(=O)N[C@@H](CCC(N)=O)C(=O)N[C@@H](C)C(=O)N[C@@H](CCCNC(=N)N)C(=O)N[C@@H](C)C(=O)N[C@@H](CCCNC(=N)N)C(=O)N[C@@H](C)C(=O)N[C@@H](C)C(=O)N[C@@H](CCCNC(=N)N)C(=O)N[C@@H](CCC(=O)O)C(=O)N[C@@H](CCC(N)=O)C(=O)N[C@@H](C)C(=O)N[C@@H](CCCCNC(=O)COCCOCCNC(=O)COCCOCCNC(=O)CC[C@H](NC(=O)CC[C@H](NC(=O)CCCCCCCCCCCCCCCCCCC(=O)O)C(=O)O)C(=O)O)C(=O)NC(C)(C)C(=O)N[C@@H](CC(N)=O)C(=O)N[C@@H](C)C(=O)N[C@@H](CCC(=O)O)C(=O)N[C@H](C(=O)N[C@@H](CC(C)C)C(=O)N[C@@H](C)C(=O)N[C@@H](CCC(=O)O)C(=O)N[C@H](C(N)=O)C(C)C)[C@@H](C)CC)[C@@H](C)CC)[C@@H](C)CC)C(C)C)C(C)C [SEQ ID NO: 19] (H-IVLSLDVPIGLLQILLEQARARAAREQAK([AEEA-AEEA-γGlu-γGlu-C20 diacid])[Aib]NAEILAEV-NH2) | -1.5 | -2.6 | No | – | – | – | – | –
CCCC[C@H](NC(=O)[C@@H](NC(=O)[C@H](CCC(=O)O)NC(=O)[C@H](C)NC(=O)[C@H](CC(N)=O)NC(=O)C(C)(C)NC(=O)[C@H](CCCCNC(=O)COCCOCCNC(=O)COCCOCCNC(=O)CC[C@H](NC(=O)CC[C@H](NC(=O)CCCCCCCCCCCCCCCCCCC(=O)O)C(=O)O)C(=O)O)NC(=O)[C@H](C)NC(=O)[C@H](CCC(N)=O)NC(=O)[C@H](CCC(=O)O)NC(=O)[C@H](CCCNC(=N)N)NC(=O)[C@H](C)NC(=O)[C@H](C)NC(=O)[C@H](CCCNC(=N)N)NC(=O)[C@H](C)NC(=O)[C@H](CCCNC(=N)N)NC(=O)[C@H](C)NC(=O)[C@H](CCC(N)=O)NC(=O)[C@H](CO)NC(=O)[C@H](CC(C)C)NC(=O)[C@H](CC(C)C)NC(=O)[C@@H](NC(=O)[C@H](CCC(N)=O)NC(=O)[C@H](CC(C)C)NC(=O)[C@H](CC(C)C)NC(=O)CNC(=O)[C@@H](NC(=O)[C@@H]1CCCN1C(=O)[C@@H](NC(=O)[C@H](CC(=O)O)NC(=O)[C@H](CC(C)C)NC(=O)[C@H](CO)NC(=O)[C@H](CC(C)C)NC(=O)[C@@H](NC(=O)[C@@H](N)[C@@H](C)CC)C(C)C)C(C)C)[C@@H](C)CC)[C@@H](C)CC)[C@@H](C)CC)C(=O)N[C@@H](C)C(=O)N[C@@H](CCC(=O)O)C(=O)N[C@H](C(N)=O)C(C)C [compound 237] (H-IVLSLDVPIGLLQILLSQARARAAREQAK([AEEA-AEEA-γGlu-γGlu-C20 diacid])[Aib]NAEI[Nle]AEV-NH2) | – | – | – | -1.1 | -2.8 | No | – | –
CC[C@H](C)[C@H](N)C(=O)N[C@H](C(=O)N[C@@H](CC(C)C)C(=O)N[C@@H](CO)C(=O)N[C@@H](CC(C)C)C(=O)N[C@@H](CC(=O)O)C(=O)N[C@H](C(=O)N1CCC[C@H]1C(=O)N[C@H](C(=O)NCC(=O)N[C@@H](CC(C)C)C(=O)N[C@@H](CC(C)C)C(=O)N[C@@H](CCC(N)=O)C(=O)N[C@H](C(=O)N[C@@H](CC(C)C)C(=O)N[C@@H](CC(C)C)C(=O)N[C@@H](CCC(=O)O)C(=O)N[C@@H](CCC(N)=O)C(=O)N[C@@H](C)C(=O)N[C@@H](CCCNC(=N)N)C(=O)N[C@@H](C)C(=O)N[C@@H](CCCNC(=N)N)C(=O)N[C@@H](C)C(=O)N[C@@H](C)C(=O)N[C@@H](CCCNC(=N)N)C(=O)N[C@@H](CCC(=O)O)C(=O)N[C@@H](CCC(N)=O)C(=O)N[C@@H](C)C(=O)N[C@@H](CCCCNC(=O)COCCOCCNC(=O)COCCOCCNC(=O)CC[C@H](NC(=O)CC[C@H](NC(=O)CCCCCCCCCCCCCCCCCCC(=O)O)C(=O)O)C(=O)O)C(=O)N[C@@H](CCC(=O)O)C(=O)N[C@@H](CC(N)=O)C(=O)N[C@@H](C)C(=O)N[C@@H](CCC(=O)O)C(=O)N[C@H](C(=O)N[C@@H](CC(C)C)C(=O)N[C@@H](C)C(=O)N[C@@H](CCC(=O)O)C(=O)N[C@H](C(N)=O)C(C)C)[C@@H](C)CC)[C@@H](C)CC)[C@@H](C)CC)C(C)C)C(C)C [SEQ ID NO: 17] (H-IVLSLDVPIGLLQILLEQARARAAREQAK([AEEA-AEEA-γGlu-γGlu-C20 diacid])ENAEILAEV-NH2) | -1.6 | -2.6 | No | – | – | – | – | –
CCCC[C@H](NC(=O)[C@@H](NC(=O)[C@H](CCC(=O)O)NC(=O)[C@H](C)NC(=O)[C@H](CC(N)=O)NC(=O)[C@H](CCC(=O)O)NC(=O)[C@H](CCCCNC(=O)COCCOCCNC(=O)COCCOCCNC(=O)CC[C@H](NC(=O)CC[C@H](NC(=O)CCCCCCCCCCCCCCCCCCC(=O)O)C(=O)O)C(=O)O)NC(=O)[C@H](C)NC(=O)[C@H](CCC(N)=O)NC(=O)[C@H](CCC(=O)O)NC(=O)[C@H](CCCNC(=N)N)NC(=O)[C@H](C)NC(=O)[C@H](C)NC(=O)[C@H](CCCNC(=N)N)NC(=O)[C@H](C)NC(=O)[C@H](CCCNC(=N)N)NC(=O)[C@H](C)NC(=O)[C@H](CCC(N)=O)NC(=O)[C@H](CO)NC(=O)[C@H](CC(C)C)NC(=O)[C@H](CC(C)C)NC(=O)[C@@H](NC(=O)[C@H](CCC(N)=O)NC(=O)[C@H](CC(C)C)NC(=O)[C@H](CC(C)C)NC(=O)CNC(=O)[C@@H](NC(=O)[C@@H]1CCCN1C(=O)[C@@H](NC(=O)[C@H](CC(=O)O)NC(=O)[C@H](CC(C)C)NC(=O)[C@H](CO)NC(=O)[C@H](CC(C)C)NC(=O)[C@@H](NC(=O)[C@@H](NC)[C@@H](C)CC)C(C)C)C(C)C)[C@@H](C)CC)[C@@H](C)CC)[C@@H](C)CC)C(=O)N[C@@H](C)C(=O)N[C@@H](CCC(=O)O)C(=O)N[C@H](C(N)=O)C(C)C [compound 101] (H-[NMeI]VLSLDVPIGLLQILLSQARARAAREQAK([AEEA-AEEA-γGlu-γGlu-C20 diacid])ENAEI[Nle]AEV-NH2) | – | – | – | -2.2 | -4.3 | No | – | –
CC[C@H](C)[C@H](NC)C(=O)N[C@H](C(=O)N[C@@H](CC(C)C)C(=O)N[C@@H](CO)C(=O)N[C@@H](CC(C)C)C(=O)N[C@@H](CC(=O)O)C(=O)N[C@H](C(=O)N1CCC[C@H]1C(=O)N[C@H](C(=O)NCC(=O)N[C@@H](CC(C)C)C(=O)N[C@@H](CC(C)C)C(=O)N[C@@H](CCC(N)=O)C(=O)N[C@H](C(=O)N[C@@H](CC(C)C)C(=O)N[C@@H](CC(C)C)C(=O)N[C@@H](CCC(=O)O)C(=O)N[C@@H](CCC(N)=O)C(=O)N[C@@H](C)C(=O)N[C@@H](CCCNC(=N)N)C(=O)N[C@@H](C)C(=O)N[C@@H](CCCNC(=N)N)C(=O)N[C@@H](C)C(=O)N[C@@H](C)C(=O)N[C@@H](CCCNC(=N)N)C(=O)N[C@@H](CCC(=O)O)C(=O)N[C@@H](CCC(N)=O)C(=O)N[C@@H](C)C(=O)N[C@@H](CCCCNC(=O)COCCOCCNC(=O)COCCOCCNC(=O)CC[C@H](NC(=O)CC[C@H](NC(=O)CCCCCCCCCCCCCCCCCCC(=O)O)C(=O)O)C(=O)O)C(=O)N[C@H](C(=O)N[C@@H](CC(N)=O)C(=O)N[C@@H](C)C(=O)N[C@@H](CCC(=O)O)C(=O)N[C@H](C(=O)N[C@@H](CC(C)C)C(=O)N[C@@H](C)C(=O)N[C@@H](CCC(=O)O)C(=O)N[C@H](C(N)=O)C(C)C)[C@@H](C)CC)[C@@H](C)O)[C@@H](C)CC)[C@@H](C)CC)C(C)C)C(C)C [SEQ ID NO: 5] (H-[NMeI]VLSLDVPIGLLQILLEQARARAAREQAK([AEEA-AEEA-γGlu-γGlu-C20 diacid])TNAEILAEV-NH2) | – | – | No | – | – | – | 21 | 14.3
